ChEMBL document CHEMBL1201862, “PubChem BioAssay data set” (2004)
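Grown in 96-well plates, cells were treated for 48 hours with each compound at five concentrations. Insufficient inhibition: endpoint recorded as highest concentration tested. Abbreviation: GI50, concentration required for 50% inhibition of growth.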 Active and inactive are the calls of the source. Rule as the data show it: active = GI50 up to about 1.1 µM and inactive = higher.

Assays:
Assay in all cases: NCI-60 cell line screen, 48 h
OVCAR-3 = tested on: OVCAR-3
NCI-H522 = tested on: NCI-H522
Hs-578T = tested on: Hs-578T
BT-549 = tested on: BT-549
SK-MEL-2 = tested on: SK-MEL-2
SNB-75 = tested on: SNB-75
OVCAR-8 = tested on: OVCAR-8
OVCAR-5 = tested on: OVCAR-5
RXF 393 = tested on: RXF 393
HOP-92 = tested on: HOP-92
UO-31 = tested on: UO-31
CAKI-1 = tested on: CAKI-1
RPMI-8226 = tested on: RPMI-8226
UACC-257 = tested on: UACC-257
K562 = tested on: K562
HL-60 = tested on: HL-60
COLO 205 = tested on: COLO 205
NCI-H23 = tested on: NCI-H23
A549 = tested on: A549
CCRF-CEM = tested on: CCRF-CEM

SMILES	GI50 (OVCAR-3)	GI50 (NCI-H522)	GI50 (Hs-578T)	GI50 (BT-549)	GI50 (SK-MEL-2)	GI50 (SNB-75)	GI50 (OVCAR-8)	GI50 (OVCAR-5)	GI50 (RXF 393)	GI50 (HOP-92)	GI50 (UO-31)	GI50 (CAKI-1)	GI50 (RPMI-8226)	GI50 (UACC-257)	GI50 (K562)	GI50 (HL-60)	GI50 (COLO 205)	GI50 (NCI-H23)	GI50 (A549)	GI50 (CCRF-CEM)
COc1cc(C(=O)NC2CCc3cc(OC)c(OC)c(OC)c3-c3ccc(OC)c(=O)cc32)cc(OC)c1OC (stereo not given)	0.0372 µM (active)	0.0234 µM (active)	0.025 µM (active)	0.083 µM (active)	0.0935 µM (active)	0.13 µM (active)	0.201 µM (active)	2.75 µM (inactive)	0.466 µM (active)	0.0592 µM (active)	10.9 µM (inactive)	1.15 µM (inactive)	0.0279 µM (active)	0.0938 µM (active)	0.0403 µM (active)	0.0259 µM (active)	0.0585 µM (active)	0.0809 µM (active)	0.431 µM (active)	0.0339 µM (active)
COC(=O)c1c(C)[nH]c2c1C(=O)C(=O)c1nc(C)c(C)nc1-2	9.79 µM (inactive)	3.48 µM (inactive)	5.85 µM (inactive)	10.9 µM (inactive)	3.86 µM (inactive)	1.21 µM (inactive)	10.2 µM (inactive)	11.7 µM (inactive)	1.98 µM (inactive)	5.79 µM (inactive)	10.1 µM (inactive)	6.75 µM (inactive)	10.2 µM (inactive)	11 µM (inactive)	9.38 µM (inactive)	9.23 µM (inactive)	8.63 µM (inactive)	10.2 µM (inactive)	7.52 µM (inactive)	5.04 µM (inactive)
COc1ccc(/C=N/c2c(O)ccc3ccccc23)cc1OC	5.14 µM (inactive)	15.6 µM (inactive)	4.36 µM (inactive)	89.3 µM (inactive)	> 100 µM (inactive)	47.2 µM (inactive)	> 100 µM (inactive)	> 100 µM (inactive)	69.3 µM (inactive)	1.95 µM (inactive)	> 100 µM (inactive)	63.2 µM (inactive)	19.2 µM (inactive)	80.5 µM (inactive)	47.1 µM (inactive)	22.1 µM (inactive)	33 µM (inactive)	31.8 µM (inactive)	54.6 µM (inactive)	> 100 µM (inactive)
CN1CCc2cc3c(c4c2C1C(O)c1ccccc1-4)OCO3 (stereo not given)	14.4 µM (inactive)	2.93 µM (inactive)	3.19 µM (inactive)	3.86 µM (inactive)	9.59 µM (inactive)	12.6 µM (inactive)	7.53 µM (inactive)	8.24 µM (inactive)	2.52 µM (inactive)	2.16 µM (inactive)	6.1 µM (inactive)	3.75 µM (inactive)	7.01 µM (inactive)	7.19 µM (inactive)	4.57 µM (inactive)	2.23 µM (inactive)	4.95 µM (inactive)	12 µM (inactive)	3.89 µM (inactive)	2.41 µM (inactive)
CC1=NN(C(=O)CC(=O)Nc2ccccc2C)C(=O)C1/N=N\c1ccc(S(=O)(=O)c2ccc(/N=N/C3C(=O)N(C(=O)CC(=O)Nc4ccccc4C)N=C3C)cc2)cc1 (stereo not given)	> 100 µM (inactive)	46 µM (inactive)	85.9 µM (inactive)	> 100 µM (inactive)	> 100 µM (inactive)	> 100 µM (inactive)	74.6 µM (inactive)	> 100 µM (inactive)	> 100 µM (inactive)	> 100 µM (inactive)	> 100 µM (inactive)	> 100 µM (inactive)	> 100 µM (inactive)	> 100 µM (inactive)	> 100 µM (inactive)	> 100 µM (inactive)	> 100 µM (inactive)	> 100 µM (inactive)	> 100 µM (inactive)	> 100 µM (inactive)
